Values of other authors, collected in patent publication US20190167598A1, “A NOVEL TREATMENT REGIMEN INVOLVING SAPROPTERIN DIHYDROCHLORIDE” (DIPHARMA S.A., priority 2016, published 2019).

Tests used:
[1] = in vivo
[2] = neutral or basic conditions

C[C@H](O)[C@H](O)[C@H]1CNc2[nH]c(N)nc(=O)c2N1.Cl.Cl [sapropterin, (6R)-2-amino-6-[(1R,2S)-1,2-dihydroxypropyl]-5,6,7,8-tetrahydropteridin-4(1H)-one dihydrochloride]
sapropterin elimination half-life time [1]: about 4 h | oxidation into dihydrobiopterin [2]: readily oxidized
